Measurements: US10544143B2, “4-azaindole compounds” (BRISTOL-MYERS SQUIBB COMPANY, priority 2017, dated 2020)
pIC50: −log10 of the molar value. Like-named read-outs stand apart in the source and are kept apart here.

Tests used:
human TLR9 = human TLR9 (Homo sapiens (Human), UniProt Q9NR96); experiment: TLR9 inhibition reporter assay (HEK-Blue SEAP); details: read-out: TLR9 IC50;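 note: SEAP driven by an IFN-β minimal promoter with NF-κB and AP-1 sites, read after 22 h, compounds dosed 0.05 nM–50 µM, inhibition scaled between agonist plus DMSO and reference-inhibitor wells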
human TLR7 = human TLR7 (Homo sapiens (Human), UniProt Q9NYK1); experiment: TLR7 inhibition reporter assay (HEK-Blue SEAP); assay type: cell-based
human TLR8 = human TLR8 (Homo sapiens (Human), UniProt Q9NR97); experiment: TLR8 inhibition reporter assay (HEK-Blue SEAP); details: read-out: TLR8 IC50;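 note: SEAP driven by IFN-β minimal promoter carrying NF-κB and AP-1 sites, compounds dosed 0.05 nM to 50 µM for 22 h, inhibition scaled between agonist-plus-DMSO and reference-inhibitor wells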
[1] = HEK-Blue cells overexpressing human TLR9, ODN2006 5 nM stimulation, SEAP reporter
[2] = HEK-Blue cells overexpressing human TLR7, gardiquimod 7.5 μM stimulation, SEAP reporter
[3] = HEK-Blue cells overexpressing human TLR8, R848 15.9 μM stimulation, SEAP reporter
[4] = HEK-Blue cells overexpressing human TLR9, SEAP reporter, ODN2006 5 nM
[5] = HEK-Blue cells overexpressing human TLR7, SEAP reporter, gardiquimod 7.5 μM
[6] = HEK-Blue cells overexpressing human TLR8, SEAP reporter, R848 15.9 μM
[7] = HEK-Blue human TLR9 cells, ODN2006 5 nM
[8] = HEK-Blue human TLR7 cells, gardiquimod 7.5 μM
[9] = HEK-Blue human TLR8 cells, R848 15.9 μM

Chain of human TLR8 (Q9NR97 27-1041): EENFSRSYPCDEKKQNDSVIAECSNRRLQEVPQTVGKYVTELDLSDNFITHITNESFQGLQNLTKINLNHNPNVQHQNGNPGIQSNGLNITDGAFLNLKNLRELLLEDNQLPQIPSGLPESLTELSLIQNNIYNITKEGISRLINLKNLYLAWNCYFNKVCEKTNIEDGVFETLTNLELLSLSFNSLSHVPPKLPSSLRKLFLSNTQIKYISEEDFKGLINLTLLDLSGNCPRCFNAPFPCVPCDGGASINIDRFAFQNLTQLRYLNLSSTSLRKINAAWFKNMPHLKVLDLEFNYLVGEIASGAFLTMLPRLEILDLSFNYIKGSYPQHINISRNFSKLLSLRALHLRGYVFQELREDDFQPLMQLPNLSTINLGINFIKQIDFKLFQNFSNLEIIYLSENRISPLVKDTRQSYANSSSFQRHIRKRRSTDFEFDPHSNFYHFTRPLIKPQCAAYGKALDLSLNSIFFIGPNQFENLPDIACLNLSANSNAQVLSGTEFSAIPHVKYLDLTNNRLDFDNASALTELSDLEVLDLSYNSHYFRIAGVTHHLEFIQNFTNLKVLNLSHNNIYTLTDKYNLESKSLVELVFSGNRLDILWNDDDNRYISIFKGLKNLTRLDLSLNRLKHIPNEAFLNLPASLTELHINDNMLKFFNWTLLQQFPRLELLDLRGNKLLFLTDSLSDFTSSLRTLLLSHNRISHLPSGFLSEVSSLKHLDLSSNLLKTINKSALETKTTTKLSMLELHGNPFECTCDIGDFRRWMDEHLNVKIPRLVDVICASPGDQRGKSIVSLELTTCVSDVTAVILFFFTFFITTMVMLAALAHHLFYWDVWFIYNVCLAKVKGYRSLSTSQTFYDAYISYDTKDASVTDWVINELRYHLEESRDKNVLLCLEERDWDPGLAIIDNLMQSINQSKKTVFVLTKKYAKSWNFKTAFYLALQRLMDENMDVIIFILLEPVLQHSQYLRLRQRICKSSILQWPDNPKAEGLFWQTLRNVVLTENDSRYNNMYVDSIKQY
Chain of human TLR7 (Q9NYK1 27-1049): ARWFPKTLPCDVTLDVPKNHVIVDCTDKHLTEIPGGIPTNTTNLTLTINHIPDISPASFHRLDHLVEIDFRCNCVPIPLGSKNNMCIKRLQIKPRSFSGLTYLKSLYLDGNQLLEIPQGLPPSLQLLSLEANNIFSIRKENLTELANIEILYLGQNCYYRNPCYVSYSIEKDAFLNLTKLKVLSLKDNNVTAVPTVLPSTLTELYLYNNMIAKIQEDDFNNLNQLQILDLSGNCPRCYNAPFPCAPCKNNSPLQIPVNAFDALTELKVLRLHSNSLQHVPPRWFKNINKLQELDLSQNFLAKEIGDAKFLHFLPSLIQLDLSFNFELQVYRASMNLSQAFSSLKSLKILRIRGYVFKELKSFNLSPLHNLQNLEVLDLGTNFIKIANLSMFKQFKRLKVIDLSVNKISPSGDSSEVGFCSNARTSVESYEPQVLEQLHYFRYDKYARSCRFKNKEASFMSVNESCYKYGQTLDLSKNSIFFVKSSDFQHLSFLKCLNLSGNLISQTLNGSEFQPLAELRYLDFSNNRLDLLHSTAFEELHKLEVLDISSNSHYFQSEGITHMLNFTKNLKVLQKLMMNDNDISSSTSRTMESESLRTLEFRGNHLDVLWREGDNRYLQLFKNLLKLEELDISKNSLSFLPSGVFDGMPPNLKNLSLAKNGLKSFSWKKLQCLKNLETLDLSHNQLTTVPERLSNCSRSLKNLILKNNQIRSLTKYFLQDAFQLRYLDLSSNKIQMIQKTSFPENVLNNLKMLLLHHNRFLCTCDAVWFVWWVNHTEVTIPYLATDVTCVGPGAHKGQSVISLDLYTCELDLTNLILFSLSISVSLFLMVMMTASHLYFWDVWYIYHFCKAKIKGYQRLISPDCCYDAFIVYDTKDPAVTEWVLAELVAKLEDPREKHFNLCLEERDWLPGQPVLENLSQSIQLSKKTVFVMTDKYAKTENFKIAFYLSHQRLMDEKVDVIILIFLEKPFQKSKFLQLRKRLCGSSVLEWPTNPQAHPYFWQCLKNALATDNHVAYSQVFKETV
Chain of human TLR9 (Q9NR96 26-1032): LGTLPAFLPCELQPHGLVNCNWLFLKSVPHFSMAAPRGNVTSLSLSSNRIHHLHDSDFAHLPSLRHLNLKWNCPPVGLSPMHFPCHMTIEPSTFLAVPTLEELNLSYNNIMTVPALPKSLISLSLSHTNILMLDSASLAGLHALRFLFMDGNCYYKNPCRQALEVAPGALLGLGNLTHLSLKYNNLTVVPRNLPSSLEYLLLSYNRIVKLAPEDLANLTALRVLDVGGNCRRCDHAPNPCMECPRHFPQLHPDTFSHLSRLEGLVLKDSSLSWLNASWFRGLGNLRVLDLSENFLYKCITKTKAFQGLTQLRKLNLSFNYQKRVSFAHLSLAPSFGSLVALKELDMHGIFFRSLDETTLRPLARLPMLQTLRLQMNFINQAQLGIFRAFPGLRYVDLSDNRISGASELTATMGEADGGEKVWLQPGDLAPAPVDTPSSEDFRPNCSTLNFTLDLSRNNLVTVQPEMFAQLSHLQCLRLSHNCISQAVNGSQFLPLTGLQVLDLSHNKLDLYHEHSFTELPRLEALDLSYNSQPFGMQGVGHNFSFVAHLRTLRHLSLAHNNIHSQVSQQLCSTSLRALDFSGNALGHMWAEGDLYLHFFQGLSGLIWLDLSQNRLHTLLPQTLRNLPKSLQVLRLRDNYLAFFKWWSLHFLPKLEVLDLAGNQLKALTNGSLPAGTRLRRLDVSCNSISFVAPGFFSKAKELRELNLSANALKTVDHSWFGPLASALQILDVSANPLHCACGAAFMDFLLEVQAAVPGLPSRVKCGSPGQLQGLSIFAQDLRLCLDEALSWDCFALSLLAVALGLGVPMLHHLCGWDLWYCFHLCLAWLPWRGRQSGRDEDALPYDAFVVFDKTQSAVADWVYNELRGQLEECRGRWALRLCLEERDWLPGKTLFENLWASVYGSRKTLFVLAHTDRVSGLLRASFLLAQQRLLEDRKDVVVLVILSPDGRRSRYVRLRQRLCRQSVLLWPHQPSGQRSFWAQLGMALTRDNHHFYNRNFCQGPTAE

SMILES | pIC50 (human TLR9; [1]) | pIC50 (human TLR7; [2]) | pIC50 (human TLR8; [3]) | pIC50 (human TLR9; [4]) | pIC50 (human TLR7; [5]) | pIC50 (human TLR8; [6]) | further results
CNC1CCC(c2ccc3[nH]c(-c4cn(C)c5nccnc45)c(C(C)C)c3n2)CC1 (stereo not drawn) [Example 300] | 5.04 | 7.32 | 6.54 |  |  |  | 
COc1cc(-c2[nH]c3ccc(C4CCC(NC5CCOC(C)(C)C5)C4)nc3c2C(C)C)cn2ncnc12 (stereo not drawn) [Example 729] |  |  |  | 5.71 | 8.96 | 8.89 | 
CCN(CC(=O)N(C)C)C1CCC(c2nc3c(C(C)C)c(-c4cn5ncnc5c(C)c4C)[nH]c3cc2F)CC1 (stereo not drawn) [Example 508] |  |  |  | 5.16 | 8.96 | 8.48 | 
COc1cc(-c2[nH]c3ccc(C4CCC(NC(C)C5CC5)C4)nc3c2C(C)C)cn2ncnc12 (stereo not drawn) [Example 724] |  |  |  | 5.66 | 9.20 | 8.70 | 
Cc1c(-c2[nH]c3ccc(C4CCC(NCCC#N)CC4)nc3c2C(C)C)cn2ncnc2c1C (stereo not drawn) [Example 384] | 5.82 | 7.89 | 7.60 |  |  |  | 
Cc1c(-c2[nH]c3ccc(N4CCN(C(=O)CCN(C)C)C[C@H]4C)nc3c2C(C)C)cn2ncnc2c1C [Example 823] |  |  |  |  |  |  | pIC50 (human TLR9; [7]): 5.16; pIC50 (human TLR7; [8]): 9.31; pIC50 (human TLR8; [9]): 8.92
Cc1cc(-c2[nH]c3ccc(C4CCC(N5CC6(COC6)C5)CC4)nc3c2C(C)C)cc(C)n1 (stereo not drawn) [Example 283] | 6.53 | 9.04 | 8.85 |  |  |  | 
Cc1cc2[nH]c(-c3cn4ncnc4c(C)c3C)c(C(C)C)c2nc1C1CCC(NC2COC2)CC1 (stereo not drawn) [Example 503] |  |  |  | 5.60 | 8.85 | 8.04 | 
COc1cc(-c2[nH]c3ccc(CCC4CNC4)nc3c2C(C)C)cn2ncnc12 [Example 697] |  |  |  | 6.04 | 7.70 | 6.95 | 
Cc1c(-c2[nH]c3ccc(C4CCC5(CC4)CNC5)nc3c2C(C)C)cn2ncnc2c1C [Example 491, 6-(3-isopropyl-5-(2-azaspiro[3.5]nonan-7-yl)-1H-pyrrolo[3,2-b]pyridin-2-yl)-7,8-dimethyl-[1,2,4]triazolo[1,5-a]pyridine] |  |  |  | 6.17 | 9.05 | 8.10 | 
Cc1c(-c2[nH]c3ccc(N4CCN(C(=O)[C@H](C)N(C)C)CC4)nc3c2C(C)C)cn2ncnc2c1C [Example 853] |  |  |  |  |  |  | pIC50 (human TLR9; [7]): 5.02; pIC50 (human TLR7; [8]): 9.29; pIC50 (human TLR8; [9]): 9.18
CCCN1CCC(COc2ccc3[nH]c(-c4cc(OC)c5ncnn5c4)c(C(C)C)c3n2)CC1 [Example 606, 6-(3-isopropyl-5-((1-propylpiperidin-4-yl)methoxy)-1H-pyrrolo[3,2-b]pyridin-2-yl)-8-methoxy-[1,2,4]triazolo[1,5-a]pyridine] |  |  |  | 5.77 | 8.64 | 8.41 | 
Cc1c(-c2[nH]c3ccc(C4CCC(N)CC4)nc3c2C(C)C)cn2ncnc2c1C (stereo not drawn) [Example 466] |  |  |  | 5.24 | 7.23 | 6.69 | 
Cc1cc(-c2[nH]c3ccc(C4CCC(NC5COC5)CC4)nc3c2C(C)C)cn2ncnc12 (stereo not drawn) [Example 279] | 5.74 | 9.51 | 8.85 |  |  |  | 
Cc1c(-c2[nH]c3ccc(N4C[C@@H](C)N(CCC(N)=O)C[C@H]4C)nc3c2C(C)C)cn2ncnc2c1C [Example 798] |  |  |  |  |  |  | pIC50 (human TLR9; [7]): 4.65; pIC50 (human TLR7; [8]): 8.38; pIC50 (human TLR8; [9]): 8.24
Cc1c(-c2[nH]c3ccc(N4CCN(C(=O)CNC(C)C)CC4)nc3c2C(C)C)cn2ncnc2c1C [Example 157] | 5.05 | 8.66 | 8.92 |  |  |  | 
COc1cc(-c2[nH]c3ccc(C4CCC(N(C)C5CC5)CC4)nc3c2C(C)C)cn2ncnc12 (stereo not drawn) [Example 172] | 5.75 | 8.72 | 7.89 |  |  |  | 
Cc1c(-c2[nH]c3ccc(C4CCC(N5CC(C(=O)N(C)C)C5)CC4)nc3c2C(C)C)cn2ncnc2c1C (stereo not drawn) [Example 1050] |  |  |  |  |  |  | pIC50 (human TLR9; [7]): 5.58; pIC50 (human TLR7; [8]): 8.55; pIC50 (human TLR8; [9]): 8.32
CNC1CCC(c2ccc3[nH]c(-c4cn(CCO)c5ncccc45)c(C(C)C)c3n2)CC1 (stereo not drawn) [Example 299] | 6.17 | 8.00 | 8.22 |  |  |  | 
CNC1CCC(c2ccc3[nH]c(-c4cn5ncnc5c(C)c4C)c(C(C)C)c3n2)CC1 (single isomer, unassigned) [Example 369, 4-(2-(7,8-dimethyl-[1,2,4]triazolo[1,5-a]pyridin-6-yl)-3-isopropyl-1H-pyrrolo[3,2-b]pyridin-5-yl)-N-methylcyclohexanamine] | 6.40 | 9.34 | 8.89 |  |  |  | 
CC(C)c1c(-c2cn(CC#N)c3ncccc23)[nH]c2ccc(C3CCC(NCC(=O)N(C)C)CC3)nc12 (stereo not drawn) [Example 276] | 6.51 | 8.05 | 8.05 |  |  |  | 
Cc1c(-c2[nH]c3ccc(N4[C@@H](C)CN(CCC(N)=O)C[C@@H]4C)nc3c2C(C)C)cn2ncnc2c1C [Example 753] |  |  |  | 4.55 | […] | 7.92 | 
COc1cc(-c2[nH]c3ccc(C4CCC(NC5CCOCC5)C4)nc3c2C(C)C)cn2ncnc12 (stereo not drawn) [Example 710] |  |  |  | 5.33 | 8.70 | 8.49 | 
